These are literature values, as cited in patent US8450280B2, “Activation of peptide prodrugs by hK2” (GenbSpera, Inc., priority 1999, dated 2013).

SMILES strings stand for the structures.

This data set deals with sarcoplasmic reticulum (SR) and endoplasmic reticulum (ER) Ca^2+-ATPase (SERCA) pump. The conditions noted are these: read-out: apparent dissociation constant; cited from earlier work.

Turning to `C/C=C(/C)C(=O)O[C@H]1C(C)=C2[C@H]([C@@H]1OC(=O)CCCCCCC)[C@@](C)(OC(C)=O)C[C@H](OC(=O)CCC)[C@@]1(O)[C@H]2OC(=O)[C@@]1(C)O` [TG, Thapsigargin], the Kd is no more than 2.2 pM.
